Assay [1] concerns the target T1, SIK2 (Homo sapiens, UniProt Q9H0K1). The assay can be described thus: SIK2 Enzymatic Assay Version 1 (ADP Glo). In kind it is biochemical. The settings on record: enzyme 0.6 nM, 160 μM ATP and 140 μM HDAC5tide (each 2× final concentration); 30 minutes pre-incubation, 4 hours; ADPGlo luminescence; read-out: SIK2 ADP Glo IC50 (μM) (Test Example 1). The procedure, abridged:
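Room-temperature ADP-Glo luminescence assay; SIK2 added at 0.6 nM (2× final) and preincubated with compound for 30 min. Reaction stopped with ADP-Glo Reagent for 40 min, then detection reagent for at least 30 min; no-peptide (ATP-only) wells served as negative control.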
In general terms: ADP-Glo first removes unused ATP, then detects ADP through luciferase.

The target in assay [2] is T1, SIK2. The assay can be described thus: SIK2 Enzymatic Assay High Version 2 (High ATP). In kind it is biochemical. The procedure, abridged:
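At room temperature, enzyme (6 nM, 2× final) was preincubated with compound for 30 min, then 6 mM ATP and 400 μM HDAC5tide (both 2× final) were added for 2 h. ADP formed was measured by ADP-Glo Max (2 h reagent, 1 h detection) using luminescence.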

T1 sequence (Q9H0K1 whole entry, species assumed): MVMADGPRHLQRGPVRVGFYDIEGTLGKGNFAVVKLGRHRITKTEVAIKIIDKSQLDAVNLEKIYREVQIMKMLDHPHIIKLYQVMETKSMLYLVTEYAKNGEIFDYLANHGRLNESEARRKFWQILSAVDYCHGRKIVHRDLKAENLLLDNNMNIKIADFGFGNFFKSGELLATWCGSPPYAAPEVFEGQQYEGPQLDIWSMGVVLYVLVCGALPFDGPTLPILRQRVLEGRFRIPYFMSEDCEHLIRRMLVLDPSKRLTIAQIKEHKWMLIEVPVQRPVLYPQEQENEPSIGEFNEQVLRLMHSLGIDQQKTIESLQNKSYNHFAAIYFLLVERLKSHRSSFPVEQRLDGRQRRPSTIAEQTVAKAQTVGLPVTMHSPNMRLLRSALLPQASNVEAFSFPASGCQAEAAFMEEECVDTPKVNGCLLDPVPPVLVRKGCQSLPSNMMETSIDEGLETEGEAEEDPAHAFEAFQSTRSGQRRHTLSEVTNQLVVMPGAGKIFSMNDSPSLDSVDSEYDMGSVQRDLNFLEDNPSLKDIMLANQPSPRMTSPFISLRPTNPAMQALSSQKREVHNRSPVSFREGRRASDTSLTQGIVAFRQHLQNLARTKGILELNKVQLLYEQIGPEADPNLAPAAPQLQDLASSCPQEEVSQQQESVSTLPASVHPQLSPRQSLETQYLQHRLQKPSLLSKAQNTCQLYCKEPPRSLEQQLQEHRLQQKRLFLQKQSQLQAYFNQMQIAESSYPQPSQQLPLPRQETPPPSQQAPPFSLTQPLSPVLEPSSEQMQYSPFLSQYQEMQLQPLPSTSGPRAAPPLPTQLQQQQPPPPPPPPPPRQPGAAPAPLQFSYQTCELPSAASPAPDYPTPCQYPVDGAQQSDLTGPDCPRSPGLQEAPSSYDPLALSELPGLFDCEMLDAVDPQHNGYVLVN

Usually IC50 stands for the concentration that inhibits the measured activity by half. As to `CN1[C@@H]2CC[C@H]1C[C@@H](Oc1cnc(C#N)cc1-c1ccn3nc(NC(=O)C4CC4)cc3c1)C2` [Example 66, N-[5-[2-cyano-5-[[(1S,5R)-8-methyl-8-azabicyclo[3.2.1]octan-3-yl]oxy]-4-pyridyl]pyrazolo[1,5-a]pyridin-2-yl]cyclopropanecarboxamide], the IC50 at SIK2 [1] was determined as 0.000561 µM; against SIK2 [2], 8.5 nM.

On to `Cc1cc(-c2ccn3nc(NC(=O)C4CC4)cc3c2)c(O[C@@H]2CC[C@H](N)C2)cn1` [Example 152, N-[5-[5-[(1R,3S)-3-aminocyclopentoxy]-2-methyl-4-pyridyl]pyrazolo[1,5-a]pyridin-2-yl]cyclopropanecarboxamide], for which the IC50 at SIK2 [1] amounted to 0.00378 µM; on SIK2 [2] it was 70.1 nM.

Consider `CN1CC[C@@H](COc2cnc(C#N)cc2-c2ccn3nc(Nc4ccccn4)cc3c2)C1` [Example 107, 5-[[(3R)-1-methylpyrrolidin-3-yl]methoxy]-4-[2-(2-pyridylamino)pyrazolo[1,5-a]pyridin-5-yl]pyridine-2-carbonitrile], for which the half-inhibitory concentration (IC50) on SIK2 [1] came to 0.0022 µM; against SIK2 [2], 40.1 nM.

For the compound `CN1CC[C@@H](COc2cnc(C#N)cc2-c2ccn3nc(NC(=O)C4CC4)cc3c2)C1` [Example 1, N-[5-[2-Cyano-5-[[(3R)-1-methylpyrrolidin-3-yl]methoxy]-4-pyridyl]pyrazolo[1,5-a]pyridin-2-yl]cyclopropanecarboxamide], the IC50 at SIK2 [1] was determined as 0.00226 µM; against SIK2 [2] it was 59.1 nM.

Regarding `N#Cc1cc(-c2ccn3nc(NC(=O)C4CC4)cc3c2)c(OCC2(O)CCCC2)cn1` [Example 42, N-[5-[2-cyano-5-[(1-hydroxycyclopentyl)methoxy]-4-pyridyl]pyrazolo[1,5-a]pyridin-2-yl]cyclopropanecarboxamide], the IC50 at SIK2 [1] worked out at 0.00169 µM; against SIK2 [2], 45.5 nM.

With `Cc1cc(-c2ccn3nc(NC(=O)C4CC4)cc3c2)c(OC[C@H](N)C(C)(C)C)cn1` [Example 150, N-[5-[5-[(2R)-2-amino-3,3-dimethyl-butoxy]-2-methyl-4-pyridyl]pyrazolo[1,5-a]pyridin-2-yl]cyclopropanecarboxamide], the half-maximal inhibitory concentration (IC50) on SIK2 [1] came to 0.00644 µM; against SIK2 [2], 322 nM.

Regarding `C[C@@H](Oc1ccc(C#N)cc1-c1ccn2nc(NC(=O)C3CC3)cc2c1)[C@@H]1CNCCO1` (single isomer, unassigned) [Example 477, (2*R, 1*S)—N-[5-[5-cyano-2-(1-morpholin-2-ylethoxy)phenyl]pyrazolo[1,5-a]pyridin-2-yl]cyclopropanecarboxamide], the IC50 at SIK2 [1] turned out to be 0.00442 µM; against SIK2 [2], 50.7 nM.

As to `Cc1cc(-c2ccn3nc(NC(=O)C4CC4)cc3c2)c(O[C@@H]2CC[C@@H](N)C2)cn1` [Example 153, N-[5-[5-[(1R,3R)-3-aminocyclopentoxy]-2-methyl-4-pyridyl]pyrazolo[1,5-a]pyridin-2-yl]cyclopropanecarboxamide], the values for the IC50 on SIK2 [1] and against SIK2 [2] were 0.000688 µM and 13.7 nM, respectively.

Consider `Cc1cc(-c2ccn3nc(Nc4cnn(C)c4)cc3c2)c(OC2CN(C)C2)cn1` [Example 568, 5-[2-methyl-5-(1-methylazetidin-3-yl)oxy-4-pyridyl]-N-(1-methylpyrazol-4-yl)pyrazolo[1,5-a]pyridin-2-amine], for which the IC50 came to 0.00471 µM at SIK2 [1] and 93.3 nM at SIK2 [2].

Take `N#Cc1cc(-c2ccn3nc(NC(=O)C4CC4)cc3c2)c(O[C@@H]2CCNC2)cn1` [Example 594, N-[5-[2-cyano-5-[(3R)-pyrrolidin-3-yl]oxy-4-pyridyl]pyrazolo[1,5-a]pyridin-2-yl]cyclopropanecarboxamide]: the IC50 at SIK2 [1] was determined as 0.000627 µM; against SIK2 [2], 9.09 nM.

As to `Cc1cc(-c2ccn3nc(NC(=O)C4CC4)cc3c2)c(OC[C@@H]2CNCCO2)cn1` [Example 143, N-[5-[2-methyl-5-[[(2S)-morpholin-2-yl]methoxy]-4-pyridyl]pyrazolo[1,5-a]pyridin-2-yl]cyclopropanecarboxamide], the IC50 is 0.000664 µM at SIK2 [1] and 12.6 nM on SIK2 [2].

As to `Cc1cc(-c2ccn3nc(NC(=O)C4CC4)cc3c2)c(OC[C@@H]2CCN(C)C2)cn1` [Example 509, N-[5-[2-methyl-5-[[(3R)-1-methylpyrrolidin-3-yl]methoxy]-4-pyridyl]pyrazolo[1,5-a]pyridin-2-yl]cyclopropanecarboxamide], the half-inhibitory concentration (IC50) at SIK2 [1] came out at 0.00321 µM; on SIK2 [2] it was 55.9 nM.

As to `N#Cc1cc(-c2ccn3nc(NC(=O)C4CC4)cc3c2)c(O[C@@H]2C[C@H]3C[C@@H]2CN3)cn1` [Example 24, N-[5-[5-[[(1R,4R,5R)-2-azabicyclo[2.2.1]heptan-5-yl]oxy]-2-cyano-4-pyridyl]pyrazolo[1,5-a]pyridin-2-yl]cyclopropanecarboxamide], the IC50 at SIK2 [1] worked out at 0.00594 µM; at SIK2 [2] it was 145 nM.

`CCOc1cnc(C#N)cc1-c1ccn2nc(NC(=O)C3CC3)cc2c1` [Example 583, N-[5-(2-cyano-5-ethoxy-4-pyridyl)pyrazolo[1,5-a]pyridin-2-yl]cyclopropanecarboxamide]: the IC50 at SIK2 [1] was found to be 0.00412 µM; on SIK2 [2], 61.1 nM.

For the compound `CN1CC(COc2cnc(C#N)cc2-c2ccn3nc(NC(=O)C4CC4)cc3c2)C1` [Example 32, N-[5-[2-cyano-5-[(1-methylazetidin-3-yl)methoxy]-4-pyridyl]pyrazolo[1,5-a]pyridin-2-yl]cyclopropanecarboxamide], the figures for the IC50 on SIK2 [1] and on SIK2 [2] were 0.0034 µM and 81.3 nM, respectively.

On to `CN1[C@@H]2CC[C@H]1C[C@@H](COc1cnc(C#N)cc1-c1ccn3nc(NC(=O)C4CC4)cc3c1)C2` [Example 83, N-(5-(2-cyano-5-(((1R,3R,5S)-8-methyl-8-azabicyclo[3.2.1]octan-3-yl)methoxy)pyridin-4-yl)pyrazolo[1,5-a]pyridin-2-yl)cyclopropanecarboxamide], for which the 50% inhibitory concentration (IC50) was determined as 0.00299 µM on SIK2 [1] and 56.7 nM on SIK2 [2].

`CC(C)(C#N)COc1cnc(OC(F)F)cc1-c1ccn2nc(Nc3ccn4ncnc4c3)cc2c1` [Example 475, 3-[[6-(difluoromethoxy)-4-[2-([1,2,4]triazolo[1,5-a]pyridin-7-ylamino)pyrazolo[1,5-a]pyridin-5-yl]-3-pyridyl]oxy]-2,2-dimethyl-propanenitrile]: the figures for the IC50 at SIK2 [1] and against SIK2 [2] were 0.00205 µM and 27.1 nM, respectively.

For `N#Cc1cc(-c2ccn3nc(NC(=O)C4CC4)cc3c2)c(OCC2CCNC2)cn1` (stereo in doubt) [Example 45, N-[5-[2-Cyano-5-[[(3R)-pyrrolidin-3-yl]methoxy]-4-pyridyl]pyrazolo[1,5-a]pyridin-2-yl]cyclopropanecarboxamide], the IC50 on SIK2 [1] amounted to 0.00116 µM; on SIK2 [2], 23.4 nM.

With `N#Cc1cc(-c2ccn3nc(NC(=O)C4CC4)cc3c2)c(OC[C@@H]2CNCCO2)cn1` [Example 19, N-[5-[2-cyano-5-[[(2S)-morpholin-2-yl]methoxy]-4-pyridyl]pyrazolo[1,5-a]pyridin-2-yl]cyclopropanecarboxamide], the IC50 at SIK2 [1] came out at 0.000783 µM; on SIK2 [2], 8.38 nM.

As to `CN1CC[C@@H](COc2cnc(C#N)cc2-c2ccn3nc(Nc4ccccc4)cc3c2)C1` [Example 106, 4-(2-anilinopyrazolo[1,5-a]pyridin-5-yl)-5-[[(3R)-1-methylpyrrolidin-3-yl]methoxy]pyridine-2-carbonitrile], the IC50 was determined as 0.00338 µM at SIK2 [1] and 48.5 nM against SIK2 [2].

With `N#Cc1cc(-c2ccn3nc(NC(=O)C4CC4)cc3c2)c(OC[C@H]2CNCCO2)cn1` [Example 592, N-[5-[2-cyano-5-[[(2R)-morpholin-2-yl]methoxy]-4-pyridyl]pyrazolo[1,5-a]pyridin-2-yl]cyclopropanecarboxamide], the IC50 at SIK2 [1] is 0.00486 µM; at SIK2 [2], 120 nM.

`Cc1cc(-c2ccn3nc(NC(=O)C4CC4)cc3c2)c(OCC2(F)CN(C)C2)cn1` [Example 169, N-[5-[5-[(3-fluoro-1-methyl-azetidin-3-yl)methoxy]-2-methyl-4-pyridyl]pyrazolo[1,5-a]pyridin-2-yl]cyclopropanecarboxamide]: the IC50 on SIK2 [1] came out at 0.00307 µM; at SIK2 [2], 50.7 nM.

As to `N#Cc1cc(-c2ccn3nc(NC(=O)C4CC4)cc3c2)c(O[C@@H]2CNC[C@H](C(F)(F)F)C2)cn1` [Example 95, N-[5-[2-cyano-5-[[(3S,5R)-5-(trifluoromethyl)-3-piperidyl]oxy]-4-pyridyl]pyrazolo[1,5-a]pyridin-2-yl]cyclopropanecarboxamide], the values for the IC50 on SIK2 [1] and against SIK2 [2] were 0.000435 µM and 2.58 nM, respectively.

As to `N#Cc1cc(-c2ccn3nc(NC(=O)C4CC4)cc3c2)c(OC[C@H]2CCCNC2)cn1` [Example 593, N-[5-[2-cyano-5-[[(3S)-3-piperidyl]methoxy]-4-pyridyl]pyrazolo[1,5-a]pyridin-2-yl]cyclopropanecarboxamide], the half-inhibitory concentration (IC50) turned out to be 0.00242 µM on SIK2 [1] and 30.7 nM on SIK2 [2].

As to `N#Cc1cc(-c2ccn3nc(NC(=O)C4CC4)cc3c2)c(O[C@H]2C[C@H]3CC[C@@H](C2)N3)cn1` [Example 82, (3-endo)-N-(5-(5-(((1R,3r,5S)-8-azabicyclo[3.2.1]octan-3-yl)oxy)-2-cyanopyridin-4-yl)pyrazolo[1,5-a]pyridin-2-yl)cyclopropanecarboxamide], the IC50 on SIK2 [1] worked out at 0.000268 µM; on SIK2 [2] it was 5.07 nM.

Consider `C[C@](O)(COc1cnc(C#N)cc1-c1ccn2nc(NC(=O)C3CC3)cc2c1)C(F)(F)F` (single isomer, unassigned) [Example 50, (*S)—N-(5-(2-Cyano-5-(3,3,3-trifluoro-2-hydroxy-2-methylpropoxy)pyridin-4-yl)pyrazolo[1,5-a]pyridin-2-yl)cyclopropanecarboxamide], for which the IC50 at SIK2 [1] worked out at 0.00111 µM; at SIK2 [2], 21.9 nM.

The values above are taken from US20240158392A1 (Janssen Biotech, Inc., priority 2021, published 2024).
